Patent US10988507B2, “Immunomodulators” (Bristol-Myers Squibb Company, priority 2016, dated 2021)
Where a SMILES comes first, the peptide text is derived from it. Bridges are numbered along the chain shown (N, C = ends). [ ]: non-standard residue; d: D form. The star is where a group is joined. Palmitoyl = CCCCCCCCCCCCCCCC(=O)*; Hyp = O=C(O)[C@@H]1C[C@@H](O)CN1; Myristoyl = CCCCCCCCCCCCCC(=O)*; NMeNle = CCCC[C@H](NC)C(=O)O; NMeA = CN[C@@H](C)C(=O)O

Key:
[1] = target: PD-1-Ig binding to PD-L1-TVMV-His (PD-L1-His) (Homo sapiens (Human), UniProt Q9NZQ7); assay: PD-1/PD-L1 Homogenous Time-Resolved Fluorescence (HTRF) binding assay; settings: PD-1-Ig (20 nM)/PD-L1-His (10 nM) binding assay
Text: The ability of the macrocyclic peptides of the present disclosure to bind to PD-L1 was investigated using a PD-1/PD-L1 Homogenous Time-Resolved Fluorescence (HTRF) binding assay.
Homogenous Time-Resolved Fluorescence (HTRF) Assays of Binding of Soluble PD-1 to Soluble PD-L1. Soluble PD-1 and soluble PD-L1 refers to proteins with carboxyl-end truncations that remove the transmembrane-spanning regions and are fused to heterologous sequences, specifically the Fc portion of the human immunoglobuling G sequence (Ig) or the hexahistidine epitope tag (His). All binding studies were performed in an HTRF assay buffer consisting of dPBS supplemented with 0.1% (w/v) bovine serum albumin and 0.05% (v/v) Tween-20. For the PD-1-Ig/PD-L1-His binding assay, inhibitors were pre-incubated with PD-L1-His (10 nM final) for 15 m in 4 μl of assay buffer, followed by addition of PD-1-Ig (20 nM final) in 1 μl of assay buffer and further incubation for 15 m. PD-L1 fusion proteins from either human, cynomologous macaques, mouse, or other species were used. HTRF detection was achieved using europium crypate-labeled anti-Ig monoclonal antibody (1 nM final) and allophycocyanin (APC) labeled anti-His monoclonal antibody (20 nM final). Antibodies were diluted in HTRF detection buffer and 5 μl was dispensed on top of binding reaction. […]

[2] = oral administration, extensive first-pass metabolism in the liver; cited from earlier work

PD-1-Ig binding to PD-L1-TVMV-His (PD-L1-His), sequence (Q9NZQ7 other isoform, or with tags, fused parts or gaps): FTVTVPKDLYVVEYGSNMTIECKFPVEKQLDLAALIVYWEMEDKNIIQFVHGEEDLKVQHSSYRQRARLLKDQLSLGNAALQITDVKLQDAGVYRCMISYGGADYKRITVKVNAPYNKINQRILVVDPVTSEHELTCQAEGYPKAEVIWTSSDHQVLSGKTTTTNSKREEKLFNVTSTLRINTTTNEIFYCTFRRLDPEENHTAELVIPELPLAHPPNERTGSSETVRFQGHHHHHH

SMILES | IC50 [1] [µM] | bioavailability [2]
CCCCCCCCCCCCCC(=O)NCCCC[C@@H]1NC(=O)[C@H](CCCC)N(C)C(=O)[C@H](CCCC)N(C)C(=O)[C@H](Cc2c[nH]c3ccccc23)NC(=O)[C@H](CO)NC(=O)[C@H](Cc2c[nH]c3ccccc23)NC(=O)[C@@H]2C[C@@H](O)CN2C(=O)[C@H](CC(C)C)NC(=O)[C@H](Cc2cnc[nH]2)NC(=O)[C@@H]2CCCN2C(=O)[C@H](CC(=O)O)NC(=O)[C@H](C)N(C)C(=O)[C@H](Cc2ccc(O)cc2)NC(=O)CSC[C@@H](C(=O)NCC(N)=O)NC1=O [Example 11059] ({CH2CO}-Y[NMeA]DPHL[Hyp]WSW[NMeNle][NMeNle]K(Myristoyl)CG-NH2; thioether N-14) | 0.69 | –
CCCCCCCCCCCCCCCC(=O)NCCCC[C@@H]1NC(=O)[C@H](CCCC)N(C)C(=O)[C@H](CCCC)N(C)C(=O)[C@H](Cc2c[nH]c3ccccc23)NC(=O)[C@H](CO)NC(=O)[C@H](Cc2c[nH]c3ccccc23)NC(=O)[C@@H]2C[C@@H](O)CN2C(=O)[C@H](CC(C)C)NC(=O)[C@H](Cc2cnc[nH]2)NC(=O)[C@@H]2CCCN2C(=O)[C@H](CC(=O)O)NC(=O)[C@H](C)N(C)C(=O)[C@H](Cc2ccc(O)cc2)NC(=O)CSC[C@@H](C(=O)NCC(N)=O)NC1=O [Example 11058] ({CH2CO}-Y[NMeA]DPHL[Hyp]WSW[NMeNle][NMeNle]K(Palmitoyl)CG-NH2; thioether N-14) | 1.93 | –
CCCC1O[C@@H]2C[C@H]3[C@@H]4CCC5=CC(=O)C=C[C@]5(C)[C@H]4[C@@H](O)C[C@]3(C)[C@]2(C(=O)CO)O1 (stereo partly drawn) [budesonide] | – | about 10%
